Test results from patent US9121847B2, “Three-dimensional microfluidic platforms and methods of use thereof” (Massachussetts Institute of Technology, priority 2008, dated 2015).
Where two headings read alike, the source gives them in different places.

Legend:
[1] = system: human dermal microvascular endothelial cells (HMVEC); conditions: for relative normalized length and area change of cell migration: collagen gel polymerized at pH 7.4
Experimental: Endothelial cell culture. The cell suspension media was prepared with 2×10^6 cells/mL and filled into the cell culturing channel. After filling, the device was kept in the incubator for 30 minutes for cells to settle down and attach on the substrate before the medium was replaced. The cell attachments duration ranges from 30 minutes to several hours depending on the cell types. Human dermal microvascular endothelial cells (HMVEC) were commercially obtained (Lonza, N.J.) and expanded with endothelial growth media (EGM-2MV; Lonza, N.J.) on regular culture flasks pre-coated with collagen I (BD Biosciences, MA) for no more than 9 passages. Recombinant human vascular endothelial growth factor (VEGF; R&D Systems, MN) was mixed with cell culturing media with working concentration of 20 ng/mL and then was filled into the condition channel to generate gradient.
Measuring and quantification of cell migration. The device was kept in incubator containing 5% CO2 at 37° C. and cell migration was monitored by phase contrast microscopy (Nikon Instruments, NY) daily. The length and area of migrated cell outlines were measured by ImageJ. Immunofluorescence staining was performed to visualize the final cell migration result. Actin filaments and nuclei were stained with Rhodamine-Phalloidin (Sigma-Aldrich, Switzerland) and DAPI (Sigma-Aldrich, Switzerland), respectively.
Quantified chemotaxis experiments with endothelial cells. […] Vascular Endothelial Growth Factor-A (VEGF), a known stimulant of endothelial cell migration^23,24 was applied to the condition channel, generating a VEGF gradient in gel scaffold between the cell channel and the condition channel. The control channel was filled with normal cell culture medium without VEGF as a control. […] Length and area changes of migrating cells into collagen scaffolds of different stiffness (pH 7.4 and pH 11) were observed and quantified over several days.
Cells were fixed after 6 days of culture with 5 days of VEGF gradient application, and stained by Rhodamine-Phalloidin and DAPI. White dotted lines indicate the outlines of gel scaffold and small rectangles in scaffold indicate the PDMS posts of 150 μm×150 μm. “0.2%” indicates a collagen concentration of 2.0 mg/mL. […] FIG. 20D is a graph of normalized relative length of migrated cells in the collagen gel scaffold polymerized at pH 7.4 with concentration of 2.0 mg/mL. ‘No VEGF’ serves as the negative control without VEGF gradient. VEGF was applied daily for various durations. ‘VEGF at day 1’ means that VEGF was first applied 1 day after cell seeding. VEGF at day 2 or 3 means VEGF was first applied 2 or 3 days after cell seeding. The relative length is calculated as the difference from the control side. FIG. 20E is a graph of normalized relative area of migrated cells in the collagen gel scaffold polymerized at pH 7.4 with concentration of 2.0 mg/mL. FIGS. 20F and G are graphs of normalized relative length and area of migrated cells in the collagen gel scaffold polymerized at pH 11.0 with concentration of 2.0 mg/mL. All graphs made by average of the value in 4 devices with n=8 (total 8 scaffolds) under one condition.
To evaluate the sensitivity of this assay, VEGF was applied to the condition channel 1, 2 or 3 days after cell seeding. […] For the normalized values, the measured data were normalized to their own baseline data at the initial time point (Eq. 1). Relative normalized values were assessed as the difference between the normalized data of the condition side and the control side. […]

[2] = Dextran diffusion from condition channel to cell channel through collagen gel scaffold, three-channel device; assay type: physicochemical; conditions: 40 kDa dextran; for time of initial diffusion from condition channel through scaffold to cell channel: 0.5 μg/mL, collagen 2.0 mg/mL polymerized at pH 7.4
Source text: Media exchange, dextran diffusion experiments and flow application. The filled media should be kept as droplets on inlets and outlets to avoid evaporation of the media. Aspirating an existing droplet and adding a new droplet of media on one side can generate micro flow due to capillary force to replace the old media in the channel with minimal shear stress on the cells. To apply mechanical angiogenic factors such as fluid shear stress or pressure gradient, fluidic circuits consisting of tubes and pumps can be connected to inlets and outlets of the device to apply precisely controlled flow. […] The diffusion profile was taken by fluorescence microscope (Nikon Instruments, NY) and analyzed by Matlab to get the intensity graph from images. […] Stable and linear gradient was achieved and maintained for several hours. […] The collagen scaffold used had 2.0 mg/mL concentration polymerized at pH 7.4.
Equilibrium was established after several hours and a linear concentration profile was maintained for 10 hours.

U87MG cells = experiment: Microfluidic chemotaxis evaluation of U87MG cells with hEGF gradient; assay type: cell-based, human; conditions: 20 or 200 ng/mL hEGF in condition channel; collagen scaffold
[3] = collagen scaffolds polymerized at pH 11.0 (stiff gels)

## VEGF
[1]; VEGF added 3 days after cell seeding
  relative normalized length and area change of cell migration: did not
[1]; VEGF applied 1 day after cell seeding
  relative normalized length and area change of cell migration: induced cell migration
[1]; VEGF applied 2 days after cell seeding
  relative normalized length and area change of cell migration: induced cell migration
[1]; [3]
  relative normalized values of the area change: too small to be detected
  relative normalized values of the length change: significant differences of cell migration

## dextran
[2]
  time of initial diffusion from condition channel through scaffold to cell channel: 30 min
[2]; listed as Dextran
  time of initial diffusion from condition channel through scaffold to cell channel: ≤ 30 min
[2]; collagen gel scaffold, after equilibrium
  duration for which linear concentration profile was maintained: 10 h

## hEGF: human epidermal growth factor (NSDSECPLSHDGYCLHDGVCMYIEALDKYACNCVVGYIGERCQYRDLKWWELR; UniProt P01133 971-1023, looked up)
U87MG cells
  migration speed of U87MG cells, condition side vs control side: higher than that of the control side
